# Measurements taken from patent US20240139211A1, “METHODS AND COMPOSITIONS FOR TREATING AMYOTROPHIC LATERAL SCLEROSIS” (Amylyx Pharmaceuticals, Inc., priority 2022, published 2024).
# Where “and” joins values, the source holds several entries; their conditions need not be identical. Identical values can stand only once.
# Key:
# MATE1 = target: T1, MATE1 (Homo sapiens, UniProt Q96FL8); assay: in vitro
# T1 sequence (Q96FL8 1-570): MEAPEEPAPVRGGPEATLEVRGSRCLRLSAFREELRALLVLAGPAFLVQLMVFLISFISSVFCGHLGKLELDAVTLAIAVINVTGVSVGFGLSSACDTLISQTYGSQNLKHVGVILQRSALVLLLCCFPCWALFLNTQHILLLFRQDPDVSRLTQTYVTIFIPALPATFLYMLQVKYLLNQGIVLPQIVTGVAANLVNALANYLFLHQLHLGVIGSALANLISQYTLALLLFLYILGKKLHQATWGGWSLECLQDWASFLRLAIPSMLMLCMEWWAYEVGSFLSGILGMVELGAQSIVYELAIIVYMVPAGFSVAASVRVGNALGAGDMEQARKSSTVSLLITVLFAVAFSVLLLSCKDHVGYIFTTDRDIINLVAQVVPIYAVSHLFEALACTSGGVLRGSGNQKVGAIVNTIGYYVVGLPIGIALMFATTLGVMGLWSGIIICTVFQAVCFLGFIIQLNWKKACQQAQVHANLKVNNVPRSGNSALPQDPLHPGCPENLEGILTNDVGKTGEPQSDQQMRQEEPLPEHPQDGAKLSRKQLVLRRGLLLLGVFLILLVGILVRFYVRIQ
# OAT3 = target: T2, OAT3 (Homo sapiens, UniProt Q8TCC7); assay: in vitro
# T2 sequence (Q8TCC7 1-542): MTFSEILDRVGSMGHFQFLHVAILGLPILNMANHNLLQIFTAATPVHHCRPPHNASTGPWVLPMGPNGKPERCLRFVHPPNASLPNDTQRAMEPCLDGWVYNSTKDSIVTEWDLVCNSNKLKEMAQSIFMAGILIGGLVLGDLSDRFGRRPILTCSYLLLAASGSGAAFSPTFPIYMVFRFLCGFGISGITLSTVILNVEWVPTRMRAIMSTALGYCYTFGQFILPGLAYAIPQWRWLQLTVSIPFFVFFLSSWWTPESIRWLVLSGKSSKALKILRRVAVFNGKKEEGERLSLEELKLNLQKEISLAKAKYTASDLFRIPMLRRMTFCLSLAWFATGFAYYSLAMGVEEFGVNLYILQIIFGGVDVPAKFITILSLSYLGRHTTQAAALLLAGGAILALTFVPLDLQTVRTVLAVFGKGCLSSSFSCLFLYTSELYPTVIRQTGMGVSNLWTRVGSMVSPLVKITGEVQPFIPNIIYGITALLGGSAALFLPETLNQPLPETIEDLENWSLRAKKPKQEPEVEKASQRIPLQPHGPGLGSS
# hrCYP2D6 = hrCYP2D6 (Homo sapiens, UniProt P10635); assay: CYP reaction phenotyping with hrCYP2D6 (% remaining); format: in vitro ADME; conditions: hrCYP2D6 20 pmol CYP/mL, 5 μM TA, PB and TUDCA co-incubated
# Chain of hrCYP2D6 (P10635 whole entry): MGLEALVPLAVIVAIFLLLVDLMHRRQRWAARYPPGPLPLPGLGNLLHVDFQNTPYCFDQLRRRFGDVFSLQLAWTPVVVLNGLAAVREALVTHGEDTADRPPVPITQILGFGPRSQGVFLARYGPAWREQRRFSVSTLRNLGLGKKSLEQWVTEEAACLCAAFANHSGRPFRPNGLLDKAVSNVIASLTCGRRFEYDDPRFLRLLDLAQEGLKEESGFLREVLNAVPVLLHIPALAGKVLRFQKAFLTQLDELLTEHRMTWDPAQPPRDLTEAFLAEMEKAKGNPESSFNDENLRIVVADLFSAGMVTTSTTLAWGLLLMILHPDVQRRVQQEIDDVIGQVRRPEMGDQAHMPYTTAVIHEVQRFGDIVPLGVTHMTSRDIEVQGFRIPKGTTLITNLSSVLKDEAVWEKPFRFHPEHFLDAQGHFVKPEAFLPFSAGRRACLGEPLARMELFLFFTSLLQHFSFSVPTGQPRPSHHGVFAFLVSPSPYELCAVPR
# hrCYP2C8 = target: T3, hrCYP2C8 (Homo sapiens, UniProt P10632); assay: CYP reaction phenotyping with hrCYP2C8 (% remaining); format: in vitro ADME; conditions: hrCYP2C8 20 pmol CYP/mL, 5 μM TA, PB and TUDCA co-incubated
# T3 sequence (P10632 1-490): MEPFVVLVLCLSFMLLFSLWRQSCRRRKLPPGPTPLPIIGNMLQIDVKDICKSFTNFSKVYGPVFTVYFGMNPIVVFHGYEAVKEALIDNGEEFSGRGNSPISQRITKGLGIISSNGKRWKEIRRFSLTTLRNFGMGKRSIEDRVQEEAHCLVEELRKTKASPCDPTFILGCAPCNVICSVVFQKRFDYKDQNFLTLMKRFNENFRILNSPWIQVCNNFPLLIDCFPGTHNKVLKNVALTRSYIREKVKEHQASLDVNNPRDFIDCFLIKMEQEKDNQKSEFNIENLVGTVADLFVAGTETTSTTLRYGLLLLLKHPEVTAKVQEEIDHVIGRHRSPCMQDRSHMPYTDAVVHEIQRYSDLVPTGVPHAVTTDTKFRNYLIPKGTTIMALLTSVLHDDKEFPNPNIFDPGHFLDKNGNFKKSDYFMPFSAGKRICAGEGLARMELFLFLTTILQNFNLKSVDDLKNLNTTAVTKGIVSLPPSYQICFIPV
# [1] = Relevant plasma concentrations for in vitro transporter assessment; format: in vivo
# [2] = Rat drug-drug interaction study TDF + AMX0035: plasma pharmacokinetics; conditions: for Plasma Concentration of analyte at 0.50 hr / Plasma Concentration of analyte at 1.0 hr / Plasma Concentration of analyte at 2.0 hr / Plasma Concentration of analyte at 4.0 hr / Plasma Concentration of analyte at 8.0 hr / Plasma Concentration of analyte at 24 hr / Plasma Concentration of analyte at […] / AUC0-24 / AUClast / Cmax / Tlast / Tmax: male Sprague Dawley rats; for AUC0-24 / AUClast / Cmax / Tlast / Tmax: oral, plasma
# hrCYP2C9 = hrCYP2C9 (Homo sapiens, UniProt P11712); assay: CYP reaction phenotyping with hrCYP2C9 (% remaining); format: in vitro ADME; conditions: hrCYP2C9 20 pmol CYP/mL, 5 μM TA, PB and TUDCA co-incubated
# Chain of hrCYP2C9 (P11712 whole entry): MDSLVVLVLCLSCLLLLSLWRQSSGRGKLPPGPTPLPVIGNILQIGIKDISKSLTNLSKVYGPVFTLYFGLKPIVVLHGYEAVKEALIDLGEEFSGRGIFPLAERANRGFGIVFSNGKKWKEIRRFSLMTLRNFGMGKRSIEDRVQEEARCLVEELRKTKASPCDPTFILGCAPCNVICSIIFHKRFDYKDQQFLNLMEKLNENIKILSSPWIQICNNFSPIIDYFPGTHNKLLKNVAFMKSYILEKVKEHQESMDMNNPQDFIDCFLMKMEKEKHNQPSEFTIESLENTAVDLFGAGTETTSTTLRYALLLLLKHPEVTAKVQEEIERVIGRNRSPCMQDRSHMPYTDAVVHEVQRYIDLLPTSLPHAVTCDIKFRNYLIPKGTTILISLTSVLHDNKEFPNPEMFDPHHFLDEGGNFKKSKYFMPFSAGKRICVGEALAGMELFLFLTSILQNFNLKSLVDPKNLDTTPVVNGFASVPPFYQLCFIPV
# [3] = Day 1, TDF only 25 mg/kg oral, individual animals, BLQ = <50 ng/mL
# [4] = Day 1, TDF only 25 mg/kg oral, mean of 3, BLQ set to zero
# [5] = Day 5, AMX0035 + TDF 840/25 mg/kg oral, individual animals, BLQ = <50 ng/mL
# [6] = Day 5, AMX0035 + TDF 840/25 mg/kg oral, mean of 3, BLQ set to zero
# [7] = Day 1, TDF only 25 mg/kg, individual animals
# [8] = Day 1, TDF only 25 mg/kg, mean, N=3
# [9] = Day 5, AMX0035 + TDF 840/25 mg/kg, individual animals
# [10] = Day 5, AMX0035 + TDF 840/25 mg/kg, mean, N=3
compound,measurement,setting,value
"C[C@H](CCC(=O)NCC(=O)O)[C@H]1CC[C@H]2[C@@H]3[C@@H](O)C[C@@H]4C[C@H](O)CC[C@]4(C)[C@H]3CC[C@]12C [Glycoursodeoxycholic acid, glycoursodeoxycholic acid]",potency estimated from few doses,MATE1,> 100 µM
same,potency estimated from few doses,OAT3,< 100 µM
tauroursodeoxycholic acid [TUDCA],% Remaining of TA,hrCYP2D6; 0 min,100%
same,% Remaining of TA,hrCYP2D6; 5 min,98.4%
same,% Remaining of TA,hrCYP2D6; 10 min,97.8%
same,% Remaining of TA,hrCYP2D6; 20 min,97.0%
same,% Remaining of TA,hrCYP2D6; 30 min,99.2%
same,% Remaining of TA,hrCYP2D6; 60 min,98.6%
same,% Remaining of TA,hrCYP2C8; 0 min,100%
same,% Remaining of TA,hrCYP2C8; 5 min,97.1%
same,% Remaining of TA,hrCYP2C8; 10 min,99.3%
same,% Remaining of TA,hrCYP2C8; 20 min,101%
same,% Remaining of TA,hrCYP2C8; 30 min,101%
same,% Remaining of TA,hrCYP2C8; 60 min,99.8%
same,Plasma Cmax (total [I]1),"[1]; component of AMX0035, highest oral dose TUDCA 1000 mg, PB 3000 mg",108 µM
same,"Unbound [I]m, max","[1]; projected unbound Iin, max",3.48 µM
same,Unbound Cmax (Unbound [I]1),"[1]; projected, from total Cmax and plasma protein binding",1.62 µM
same,Plasma Concentration of analyte at 0.50 hr,[2]; [3],154 ng/mL and 148 ng/mL and 45.4 ng/mL
same,Plasma Concentration of analyte at 1.0 hr,[2]; [3],239 ng/mL and 197 ng/mL and 108 ng/mL
same,Plasma Concentration of analyte at 2.0 hr,[2]; [3],313 ng/mL and 186 ng/mL and 76.8 ng/mL
same,Plasma Concentration of analyte at 4.0 hr,[2]; [3],199 ng/mL and 153 ng/mL and 71.4 ng/mL
same,Plasma Concentration of analyte at 8.0 hr,[2]; [3],338 ng/mL and 211 ng/mL and 68.8 ng/mL
same,Plasma Concentration of analyte at 24 hr,[2]; [3],267 ng/mL and 287 ng/mL and 113 ng/mL
same,Plasma Concentration of analyte at […],[2]; [3],201 ng/mL and 121 ng/mL and 69.3 ng/mL
same,Plasma Concentration of analyte at 0.50 hr,[2]; [4],116 ng/mL
same,Plasma Concentration of analyte at 1.0 hr,[2]; [4],181 ng/mL
same,Plasma Concentration of analyte at 2.0 hr,[2]; [4],192 ng/mL
same,Plasma Concentration of analyte at 4.0 hr,[2]; [4],141 ng/mL
same,Plasma Concentration of analyte at 8.0 hr,[2]; [4],139 ng/mL
same,Plasma Concentration of analyte at 24 hr,[2]; [4],222 ng/mL
same,Plasma Concentration of analyte at […],[2]; [4],130 ng/mL
same,Mean endogenous plasma levels,"[2]; Day 1, no AMX0035, over 24 hours",130 to 222 ng/mL
same,Increase of plasma concentration vs Day 1 at each time point,[2]; Day 5,30-50%
same,Peak (Cmax) plasma value,"[2]; Day 5, AMX0035 840 mg/kg PO",298 ng/mL
same,Plasma Concentration of analyte at 0.50 hr,[2]; [5],96.1 ng/mL and 225 ng/mL and 183 ng/mL
same,Plasma Concentration of analyte at 1.0 hr,[2]; [5],154 ng/mL and 236 ng/mL and 366 ng/mL
same,Plasma Concentration of analyte at 2.0 hr,[2]; [5],126 ng/mL and 200 ng/mL and 505 ng/mL
same,Plasma Concentration of analyte at 4.0 hr,[2]; [5],123 ng/mL and 176 ng/mL and 255 ng/mL
same,Plasma Concentration of analyte at 8.0 hr,[2]; [5],103 ng/mL and 172 ng/mL and 187 ng/mL
same,Plasma Concentration of analyte at 24 hr,[2]; [5],130 ng/mL and 216 ng/mL and 178 ng/mL
same,Plasma Concentration of analyte at […],[2]; [5],84.0 ng/mL and 220 ng/mL and 235 ng/mL
same,Plasma Concentration of analyte at 0.50 hr,[2]; [6],168 ng/mL
same,Plasma Concentration of analyte at 1.0 hr,[2]; [6],252 ng/mL
same,Plasma Concentration of analyte at 2.0 hr,[2]; [6],277 ng/mL
same,Plasma Concentration of analyte at 4.0 hr,[2]; [6],185 ng/mL
same,Plasma Concentration of analyte at 8.0 hr,[2]; [6],154 ng/mL
same,Plasma Concentration of analyte at 24 hr,[2]; [6],175 ng/mL
same,Plasma Concentration of analyte at […],[2]; [6],180 ng/mL
same,AUC0-24,[2]; [7],2040 ng·h/mL and 4870 ng·h/mL and 5380 ng·h/mL
same,AUClast,[2]; [7],2040 ng·h/mL and 4870 ng·h/mL and 5380 ng·h/mL
same,Cmax,[2]; [7],113 ng/mL and 313 ng/mL and 287 ng/mL
same,Tlast,[2]; [7],24 h
same,Tmax,[2]; [7],24 h and 2.0 h
same,AUC0-24,[2]; [8],409 ng·h/mL
same,AUClast,[2]; [8],4090 ng·h/mL
same,Cmax,[2]; [8],238 ng/mL
same,Tlast,[2]; [8],24 h
same,Tmax,[2]; [8],17 h
same,AUC0-24,[2]; [9],2800 ng·h/mL and 4590 ng·h/mL and 5220 ng·h/mL
same,AUClast,[2]; [9],2800 ng·h/mL and 4590 ng·h/mL and 5220 ng·h/mL
same,Cmax,[2]; [9],154 ng/mL and 236 ng/mL and 505 ng/mL
same,Tlast,[2]; [9],24 h
same,Tmax,[2]; [9],1.0 h and 2.0 h
same,AUC0-24,[2]; [10],4200 ng·h/mL
same,AUClast,[2]; [10],4200 ng·h/mL
same,Cmax,[2]; [10],298 ng/mL
same,Tlast,[2]; [10],24 h
same,Tmax,[2]; [10],1.3 h
same,% Remaining of TA,hrCYP2C9; 0 min,100%
same,% Remaining of TA,hrCYP2C9; 5 min,96.0%
same,% Remaining of TA,hrCYP2C9; 10 min,98.8%
same,% Remaining of TA,hrCYP2C9; 20 min,98.5%
same,% Remaining of TA,hrCYP2C9; 30 min,97.8%
same,% Remaining of TA,hrCYP2C9; 60 min,90.3%
